Results on three compounds are retold here after ChEMBL document CHEMBL1152378 (Bioorg Med Chem Lett, 2009).

Where only a bound is given, the exact number is not on record here.

By IC50 is commonly meant the concentration that gives 50% inhibition. Read a high IC50 as a need for much substance. What is called Ki is the equilibrium dissociation constant of an inhibitor or competing ligand from its target.

Targets include Carbonic anhydrase 2 (Homo sapiens, UniProt P00918); Carbonic anhydrase 9 (Homo sapiens, UniProt Q16790); Carbonic anhydrase 4 (Homo sapiens, UniProt P22748); Carbonic anhydrase 3 (Homo sapiens, UniProt P07451); Carbonic anhydrase 13 (Mus musculus, UniProt Q9D6N1); Carbonic anhydrase 6 (Homo sapiens, UniProt P23280); Carbonic anhydrase 12 (Homo sapiens, UniProt O43570); Carbonic anhydrase 1 (Homo sapiens, UniProt P00915); Carbonic anhydrase 14 (Homo sapiens, UniProt Q9ULX7); Carbonic anhydrase 7 (Homo sapiens, UniProt P43166).

In test [1] the target is Carbonic anhydrase 5A, mitochondrial (Homo sapiens, UniProt P35218).
Test [2] addresses Carbonic anhydrase 5B, mitochondrial (Homo sapiens, UniProt Q9Y2D0).
For another test, the target named is T1, Carbonic anhydrase 15 (Mus musculus, UniProt Q99N23).
T1 sequence (Q99N23 whole entry): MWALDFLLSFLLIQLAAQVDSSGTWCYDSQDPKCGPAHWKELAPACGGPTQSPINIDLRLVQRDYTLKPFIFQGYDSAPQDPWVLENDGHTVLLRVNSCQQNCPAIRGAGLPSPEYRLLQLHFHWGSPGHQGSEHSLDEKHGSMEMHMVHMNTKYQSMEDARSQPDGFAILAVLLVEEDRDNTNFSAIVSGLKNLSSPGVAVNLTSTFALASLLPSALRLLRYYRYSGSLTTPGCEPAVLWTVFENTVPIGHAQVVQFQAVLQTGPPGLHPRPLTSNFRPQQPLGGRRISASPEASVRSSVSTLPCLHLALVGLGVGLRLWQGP

Sequence of Carbonic anhydrase 5A, mitochondrial (P35218 whole entry): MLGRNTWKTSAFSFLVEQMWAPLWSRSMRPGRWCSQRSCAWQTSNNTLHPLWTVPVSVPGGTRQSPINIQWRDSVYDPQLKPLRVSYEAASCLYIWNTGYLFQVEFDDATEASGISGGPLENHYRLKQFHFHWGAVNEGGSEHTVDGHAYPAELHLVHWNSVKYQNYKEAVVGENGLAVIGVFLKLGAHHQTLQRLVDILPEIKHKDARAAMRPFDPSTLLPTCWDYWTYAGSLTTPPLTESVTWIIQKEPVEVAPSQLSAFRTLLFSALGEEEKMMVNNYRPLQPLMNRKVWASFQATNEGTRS
Sequence of Carbonic anhydrase 3 (P07451 whole entry): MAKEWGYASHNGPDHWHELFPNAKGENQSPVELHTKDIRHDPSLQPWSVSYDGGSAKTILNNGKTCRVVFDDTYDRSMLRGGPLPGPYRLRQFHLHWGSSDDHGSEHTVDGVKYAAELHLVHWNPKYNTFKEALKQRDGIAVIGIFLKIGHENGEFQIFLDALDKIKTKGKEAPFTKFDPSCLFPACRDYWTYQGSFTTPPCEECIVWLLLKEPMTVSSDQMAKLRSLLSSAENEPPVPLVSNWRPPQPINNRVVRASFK
Sequence of Carbonic anhydrase 6 (P23280 whole entry): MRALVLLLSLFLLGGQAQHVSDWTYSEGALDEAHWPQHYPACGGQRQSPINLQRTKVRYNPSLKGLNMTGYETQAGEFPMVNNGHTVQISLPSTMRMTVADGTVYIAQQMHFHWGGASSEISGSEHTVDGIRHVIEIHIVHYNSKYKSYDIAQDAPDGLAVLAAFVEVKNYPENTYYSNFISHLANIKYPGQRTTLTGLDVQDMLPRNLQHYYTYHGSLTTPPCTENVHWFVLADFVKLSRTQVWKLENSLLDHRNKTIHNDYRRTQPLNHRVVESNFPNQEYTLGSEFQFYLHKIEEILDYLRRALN
Sequence of Carbonic anhydrase 5B, mitochondrial (Q9Y2D0 whole entry): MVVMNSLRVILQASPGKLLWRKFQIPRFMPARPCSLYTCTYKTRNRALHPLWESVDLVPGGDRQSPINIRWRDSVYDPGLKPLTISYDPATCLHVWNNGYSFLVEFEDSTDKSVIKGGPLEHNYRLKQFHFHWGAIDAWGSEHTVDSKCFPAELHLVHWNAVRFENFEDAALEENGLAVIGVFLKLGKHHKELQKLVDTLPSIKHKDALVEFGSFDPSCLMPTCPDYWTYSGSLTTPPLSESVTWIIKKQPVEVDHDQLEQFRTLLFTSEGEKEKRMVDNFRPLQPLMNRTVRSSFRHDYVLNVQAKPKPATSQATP
Sequence of Carbonic anhydrase 14 (Q9ULX7 whole entry): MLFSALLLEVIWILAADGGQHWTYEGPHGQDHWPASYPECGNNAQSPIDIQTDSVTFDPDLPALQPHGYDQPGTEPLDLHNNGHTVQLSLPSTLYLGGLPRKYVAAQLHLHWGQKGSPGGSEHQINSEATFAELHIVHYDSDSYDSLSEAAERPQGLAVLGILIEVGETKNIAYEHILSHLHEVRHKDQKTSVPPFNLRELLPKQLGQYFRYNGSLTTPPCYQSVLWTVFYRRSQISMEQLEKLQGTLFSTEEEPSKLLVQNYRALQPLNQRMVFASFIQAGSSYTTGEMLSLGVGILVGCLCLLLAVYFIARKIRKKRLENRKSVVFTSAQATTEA
Sequence of Carbonic anhydrase 13 (Q9D6N1 whole entry): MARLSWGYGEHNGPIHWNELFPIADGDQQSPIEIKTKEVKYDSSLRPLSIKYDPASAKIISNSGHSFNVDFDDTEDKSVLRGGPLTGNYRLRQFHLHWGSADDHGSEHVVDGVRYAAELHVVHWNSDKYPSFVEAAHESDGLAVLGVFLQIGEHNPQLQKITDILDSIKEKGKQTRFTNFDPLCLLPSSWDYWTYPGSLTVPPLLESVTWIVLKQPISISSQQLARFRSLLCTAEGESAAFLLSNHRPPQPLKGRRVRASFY
Sequence of Carbonic anhydrase 12 (O43570 whole entry): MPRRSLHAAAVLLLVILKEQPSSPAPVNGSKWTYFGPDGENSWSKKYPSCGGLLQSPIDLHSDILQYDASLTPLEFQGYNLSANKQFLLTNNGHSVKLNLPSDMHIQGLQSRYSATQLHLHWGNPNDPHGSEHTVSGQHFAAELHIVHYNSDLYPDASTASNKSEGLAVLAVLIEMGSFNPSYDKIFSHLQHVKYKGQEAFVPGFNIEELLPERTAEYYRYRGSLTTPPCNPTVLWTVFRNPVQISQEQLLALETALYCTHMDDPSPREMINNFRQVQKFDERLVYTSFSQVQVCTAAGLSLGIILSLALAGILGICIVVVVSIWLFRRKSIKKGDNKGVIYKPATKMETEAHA
Sequence of Carbonic anhydrase 1 (P00915 whole entry): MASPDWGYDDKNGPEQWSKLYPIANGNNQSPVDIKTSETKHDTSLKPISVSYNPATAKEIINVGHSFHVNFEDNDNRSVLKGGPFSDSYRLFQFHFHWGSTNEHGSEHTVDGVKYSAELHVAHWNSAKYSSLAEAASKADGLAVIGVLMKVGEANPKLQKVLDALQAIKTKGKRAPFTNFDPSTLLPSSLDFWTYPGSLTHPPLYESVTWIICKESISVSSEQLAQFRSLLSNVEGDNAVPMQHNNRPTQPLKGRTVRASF
Sequence of Carbonic anhydrase 4 (P22748 whole entry): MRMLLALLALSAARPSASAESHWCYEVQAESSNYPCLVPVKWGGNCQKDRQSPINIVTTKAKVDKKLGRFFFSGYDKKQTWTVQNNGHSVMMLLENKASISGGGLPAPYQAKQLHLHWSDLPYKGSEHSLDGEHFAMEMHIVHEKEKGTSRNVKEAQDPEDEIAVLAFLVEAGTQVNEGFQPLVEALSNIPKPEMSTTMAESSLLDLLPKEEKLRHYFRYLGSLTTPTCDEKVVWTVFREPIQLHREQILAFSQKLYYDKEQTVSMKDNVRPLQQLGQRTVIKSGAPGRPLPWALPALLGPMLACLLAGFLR
Sequence of Carbonic anhydrase 7 (P43166 whole entry): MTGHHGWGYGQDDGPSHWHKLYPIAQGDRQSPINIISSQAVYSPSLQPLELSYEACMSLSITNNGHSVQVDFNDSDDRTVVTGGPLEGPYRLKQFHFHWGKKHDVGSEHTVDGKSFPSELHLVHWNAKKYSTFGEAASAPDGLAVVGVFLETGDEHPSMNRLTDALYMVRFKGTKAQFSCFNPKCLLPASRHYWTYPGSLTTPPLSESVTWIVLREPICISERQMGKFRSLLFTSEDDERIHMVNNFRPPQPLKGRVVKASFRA

`C#CCNc1nc(Nc2ccc(S(N)(=O)=O)cc2)ncc1Br`: the IC50 against Carbonic anhydrase 2 turned out to be 331 nM.
For the compound `Cc1cn(-c2cc(NC(=O)c3ccc(C)c(Nc4nccc(-c5cccnc5)n4)c3)cc(C(F)(F)F)c2)cn1` [NILOTINIB], the Ki at Carbonic anhydrase 9 turned out to be 41.9 nM; on Carbonic anhydrase 4, 446 nM; on Carbonic anhydrase 3 it was 443 nM; at Carbonic anhydrase 13, 4670 nM; on Carbonic anhydrase 6, 461 nM; in [1], 5490 nM. In addition, the Ki was determined as 14900 nM in test [2]; 302 nM at Carbonic anhydrase 12; 29.3 nM on Carbonic anhydrase 1; 79 nM at Carbonic anhydrase 15; 223 nM at Carbonic anhydrase 14.
Turning to `COc1cc(O)c(/C=C\C(=O)O)cc1[C@@H](O)CC(C)C`, the IC50 is 54500 nM against Carbonic anhydrase 9; greater than 10 nM against Carbonic anhydrase 3; 790 nM on Carbonic anhydrase 13; 35700 nM at Carbonic anhydrase 6; 9600 nM in test [1]; 27900 nM on Carbonic anhydrase 7. The IC50 in test [2] worked out at 17700 nM; at Carbonic anhydrase 12 it was 48600 nM; against Carbonic anhydrase 1, 78 nM; against Carbonic anhydrase 15, 93100 nM; on Carbonic anhydrase 14, 780 nM.
